In PMC6718736, “Validation of in vitro methods for human cytochrome P450 enzyme induction: Outcome of a multi-laboratory study” (Toxicology in Vitro, 2019):
Read-outs that look alike come from different tables or passages of the source.

Columns and labels:
CYP = CYP isoforms induced; ref Abadie et al. (2009), Richert et al. (2010), Preissner et al. (2010), Hoffmann et al. (2014); cited from earlier work
CYP1A2 [1] = experiment: CYP1A2 enzyme induction assay in cryopreserved primary human hepatocytes (PHH); assay type: in vitro ADME; conditions: for Assigned classification CYP1A2: PHH
CYP3A4 [2] = conditions: in vivo; cited from earlier work
[3] = Solubility by nephelometry (EURL ECVAM); assay type: physicochemical; conditions: for HepaRG medium stability / PHH medium stability: ECVAM nephelometry, ^2 = solubility limit
Excerpt: In addition to the visual inspection performed by the validation laboratories as described in the SOP, EURL ECVAM introduced nephelometry for systematic solubility determination of the 13 validation set chemicals. Nephelometry uses a laser beam and the principle of Tyndall effect light scatter to detect turbidity due to insolubility. The nephelometer method used formazin as reference item (1, 5, 10 and 20 nephelometric turbidity units (NTU)) to calculate the relative turbidity (RTU) of the validation set of chemicals. To the naked eye, 20 NTU is perceptible, while the nephelometer was sensitive to 5 NTU, with 1 NTU equivalent to background (solvent/medium blank).

[4] = cited from earlier work
CYP3A4 [5] = test system: CYP3A4
[6] = Solubility by visual inspection (DMSO stock solution and assay medium); assay type: physicochemical; conditions: assay medium
Protocol: The SOPs relied on visual inspection for solubility observation. […] The absence of precipitation in the medium was checked pre- and post-incubation (24 hours) by centrifugation of the sample and observation of any precipitation (pellet residue).

CYP1A2 [7] = conditions: cited from earlier work; for CYP induction in vivo literature reference: CYP1A2: human in vivo, CYP named without remark = induced, ref references in the cell, Washington University database, Hoffmann et al. (2014), Pelkonen et al. (2008), Hukkanen et al. (2012)
CYP2B6 = CYP2B6 enzyme induction assay in cryopreserved primary human hepatocytes (PHH); assay type: in vitro ADME; conditions: for Assigned classification CYP2B6: PHH
PHH = experiment: Cytotoxicity assay (resazurin) in PHH, 72 hours; assay type: cell-based, human; conditions: viability reduction <20%
Protocol: (§1) Potential cytotoxicity of the validation set chemicals for PHH and HepaRG cells was determined starting from the highest soluble concentration, followed by a 1:1 or 1:3 dilution for PHH and HepaRG cells, respectively. The incubation time reflected the conditions used for the induction assays (72 hours and 48 hours of incubation for PHH and HepaRG cells, respectively). The cytotoxicity assay was based on the conversion of redox dye resazurin to fluorescent resorufin by living cells. Non-viable cells, without metabolic capacity, yield no fluorimetry signal.
(§2) Results were expressed as fractional survival (FS %) with respect to untreated controls and were calculated based on measured relative fluorescent units (RFU), corrected for the background signal: %FS=RFUtreated cells−meanRFUbackground/RFUuntreated cells−meanRFUbackgroundx100
(§3) Cytotoxicity was evaluated from the dose-response curve, where the mean FS (%) of three technical replicates was plotted versus the corresponding concentration.
(§4) The SOP acceptance criteria required a cell viability of 50-70 % for doxorubicin (8 μM, HepaRG cells) and ≤70 % for chlorpromazine (25 μM, PHH), the cytotoxicity reference items. The highest concentration with viability reduction <20% (PHH) or <10% (HepaRG) was eligible as starting concentration for the induction assay.

HepaRG cells = experiment: Cytotoxicity assay (resazurin) in HepaRG cells, 48 hours; assay type: cell-based, human; conditions: viability reduction <10%
Protocol: as §1, §2, §3, §4

For `CO[C@H]1/C=C/O[C@@]2(C)Oc3c(C)c(O)c4c(c3C2=O)C2=NC3(CCN(CC(C)C)CC3)NC2=C(NC(=O)/C(C)=C\C=C\[C@H](C)[C@H](O)[C@@H](C)[C@@H](O)[C@@H](C)[C@H](OC(C)=O)[C@@H]1C)C4=O` [Rifabutin], the “CYP induction in vitro (human hepatocytes)” value (CYP) is listed as “CYP1A2, CYP3A4”, the “Prediction in vivo inducer” value (CYP1A2 [1]; CYP1A2, PHH, Cmax/F2 >0.5 criterion) is listed as “No” and the F2 (CYP1A2 [1]; CYP1A2, PHH, in vitro concentration producing 2-fold induction) is listed as 2.2 to 6.7 µM. The Induction in vitro (CYP1A2 [1]; CYP1A2, PHH, positive in one donor in each of the three laboratories) was “Yes”, the “Assigned classification CYP1A2” value (CYP1A2 [1]; Lab 1, batch 0 6 A) was 1 and the “Assigned classification CYP1A2” value (CYP1A2 [1]; Lab 1, batch 4 0 8) was 1. For the same molecule, the “Assigned classification CYP1A2” value (CYP1A2 [1]; Lab 1, batch 8 0 8) was 0, the “Assigned classification CYP1A2” value (CYP1A2 [1]; Lab 2, batch 0 6 A) was 0 and the “Assigned classification CYP1A2” value (CYP1A2 [1]; Lab 2, batch 4 0 8) was 0. The “Assigned classification CYP1A2” value (CYP1A2 [1]; Lab 2, batch 8 0 8) was 1, the “Assigned classification CYP1A2” value (CYP1A2 [1]; Lab 3, batch 0 6 A) was 1 and the “Assigned classification CYP1A2” value (CYP1A2 [1]; Lab 3, batch 4 0 8) was 0. The “Assigned classification CYP1A2” value (CYP1A2 [1]; Lab 3, batch 8 0 8) was 0, the “CYP induction in vivo literature reference: CYP3A4” value (CYP3A4 [2]) was “CYP1A2 NOT induced ([Gillum et al., 1996]) CYP2B6 NO studies CYP3A4 ([Horita and Doi, 2014]; [Barditch-Crovo et al., 1999])” and the Induction in vivo (CYP3A4 [2]) was “Yes”. For the same molecule, the HepaRG medium stability [3] was 40 µg/mL, the PHH medium stability [3] was 40 µg/mL and the Cmax ([4]; human in vivo plasma concentration, normal dose) was 440 nM. The Cmax ([4]; human in vivo, normal dose (Table 10)) was 440 nM, the Induction in vitro (CYP3A4 [5]) was “Yes” and the “Prediction in vivo inducer” value (CYP3A4 [5]) was “Yes”. The “Summary predictive capacity, CYP3A4 induction (Y/N)” value (CYP3A4 [5]; hepatocytes) was “Y”, the Cmax/F2 (CYP3A4 [5]; human) was 4.4 and the F2 (CYP3A4 [5]; human) was 0.1 µM. For the same molecule, the HepaRG medium stability ([6]; Lab 1, visual observation) was 40 µg/mL, the HepaRG medium stability ([6]; Lab 2, visual observation) was 20 µg/mL and the HepaRG medium stability ([6]; Lab 3, visual observation) was 40 µg/mL. The PHH medium stability ([6]; Lab 4, visual observation) was 40 µg/mL, the PHH medium stability ([6]; Lab 5, visual observation) was 40 µg/mL and the PHH medium stability ([6]; Lab 6, visual observation) was 40 µg/mL. For the same molecule, the Induction in vivo (CYP1A2 [7]; CYP1A2, human, ref Table 1) was “No”, the “CYP induction in vivo literature reference: CYP1A2” value (CYP1A2 [7]) was “CYP1A2 NOT induced ([Gillum et al., 1996]) CYP2B6 NO studies CYP3A4 ([Horita and Doi, 2014]; [Barditch-Crovo et al., 1999])” and the F2 (CYP2B6; CYP2B6, PHH) was 0.29 to 0.87 µM. For the same molecule, the Induction in vitro (CYP2B6; CYP2B6, PHH) was “induced CYP2B6 and Yes”, the “Prediction in vivo inducer” value (CYP2B6; CYP2B6, PHH) was “Yes” and the “Assigned classification CYP2B6” value (CYP2B6; Lab 1, batch 0 6 A) was 1. For the same molecule, the “Assigned classification CYP2B6” value (CYP2B6; Lab 1, batch 4 0 8) was 0, the “Assigned classification CYP2B6” value (CYP2B6; Lab 1, batch 8 0 8) was 1 and the “Assigned classification CYP2B6” value (CYP2B6; Lab 2, batch 0 6 A) was 0. For the same molecule, the “Assigned classification CYP2B6” value (CYP2B6; Lab 2, batch 4 0 8) was 0, the “Assigned classification CYP2B6” value (CYP2B6; Lab 2, batch 8 0 8) was 1 and the “Assigned classification CYP2B6” value (CYP2B6; Lab 3, batch 0 6 A) was 1. The “Assigned classification CYP2B6” value (CYP2B6; Lab 3, batch 4 0 8) was 1 and the “Assigned classification CYP2B6” value (CYP2B6; Lab 3, batch 8 0 8) was 1.
For `OCc1c[nH]c2ccccc12` [Indole-3-carbinol], the “highest soluble non cytotoxic concentration used for the subsequent induction assay, PHH” value (PHH) is listed as “insoluble (excluded)”, the “CYP induction in vitro (human hepatocytes)” value (CYP) is listed as “CYP1A2” and the “nephelometry finding in assay medium” value ([3]; 40 μg/ml, the two media) is listed as “insoluble suspensions”. For the same molecule, the HepaRG medium stability [3] was 10^2 μg/mL, the PHH medium stability [3] was 10^2 μg/mL and the HepaRG medium stability ([6]; Lab 1, visual observation) was 5 µg/mL. It also gave a HepaRG medium stability ([6]; Lab 2, visual observation) of 10 µg/mL, a HepaRG medium stability ([6]; Lab 3, visual observation) of 10 µg/mL and a PHH medium stability ([6]; Lab 4, visual observation) of 10 µg/mL. For the same molecule, the PHH medium stability ([6]; Lab 5, visual observation) was 20 µg/mL, the PHH medium stability ([6]; Lab 6, visual observation) was 20 µg/mL and the “highest soluble non cytotoxic concentration used for the subsequent induction assay, HepaRG” value (HepaRG cells) was “insoluble (excluded)”. The “CYP induction in vivo literature reference: CYP1A2” value (CYP1A2 [7]) was “CYP 1A2 ([Reed et al., 2005]) CYP2B6/CYP3A4 NO studies”.
